Data on one compound can be found in patent US11771692B2, “N-hydroxyethyl didehydroazapodophyllotoxins as GBP1 inhibitors and methods of overcoming treatment resistance in cancer” (The Board of Trustees of the Leland Stanford Junior …, priority 2018, dated 2023).

One data set relates to GBP1. The data set is described as follows: cell-based reporter assay, OVCAR-8 stably transfected with GBP-1-luciferase. Particulars: OVCAR-8 GBP-1-luciferase. From the text: Exemplary compounds (1)-(17) and previously identified compound SU093 (Andreoli, M., Persico, M.; Kumar, A.; Orteca, N.; Kumar, V.; Pepe, A.; Mahalingam, S.; Alegria, A. E.; Petrella, L.; Sevciunaite, L.; Camperchioli, A.; Mariani, M.; Di Dato, A.; Novellino, E.; Scambia, G., Malhotra, S. V.; Ferlini, C.; Fattorusso, C., Identification of the First Inhibitor of the GBP1:PIM1 Interaction. Implications for the Development of a New Class of Anticancer Agents against Paclitaxel Resistant Cancer Cells. Journal of Medicinal Chemistry 2014, 57 (19), 7916-7932) were tested for GBP1 inhibition using a cell-based reporter assay in ovarian cancer cell line OVCAR-8 stably transfected with GBP-1-luciferase. Tables 1 and 2 below outlines the percentage of GBP1 expression in OVCAR-8 cells for each of the 17 compounds tested.
On the technique in general: A reporter such as luciferase makes a cellular process visible.

The next data set deals with HEK293. The data set is described as follows: MTT cytotoxicity assay, normal HEK293 cells. It counts as cell-based. From the text: FIG. 3, panels A-E. FIG. 3, panel A illustrates the effects of SU093 on survival of human normal HEK293 cell line and ovarian cancer cell lines OVCAR8 & SKOV3 cells via MTT assay. FIG. 3, panel B illustrates the effect of SU093 on GBP1 and PIM1 expression in OVCAR8 cells. […] FIG. 3, panel D illustrates quantification of overexpression and knockdown of GBP1 gene in stably transfected OVCAR8 cells. FIG. 3, panel E illustrates cytotoxicity of SU093 as evaluated in GBP1-OV, GBP1-WT and GBP1-KD OVCAR8 via MTT assay.
(§1) Furthermore, OVCAR8 cells with overexpressed (OV) and knockdown (KD) of GBP1 gene were created (FIG. 3, panel D) and cell viability experiments were performed on GBP1-WT (wild-type), GBP1-OV and GBP1-KD OVCAR8 cells at different doses of SU093.

In a further data set the test system is OVCAR8 cells. Briefly: Active mitochondrial mass (MitoTracker Red CMXRos) in OVCAR8 cells. It counts as cell-based.
Excerpt: FIG. 4, panel A illustrates a histogram of cell cycle distribution of propidium iodide (PI)-stained cells. […] FIG. 4, panel C illustrates the effect of SU093 on cell cycle and cell death regulators analyzed by immunostaining. FIG. 4, panel D illustrates mitochondria stained with MitoTracker Red CMXRos and visualized by confocal microscopy indicating mitochondrial dysfunction in OVCAR8 cells. FIG. 4, panel E illustrates the effect of SU093 on active mitochondrial mass in OVCAR8 cells.
as §1

For the next data set, the system named is SCC-90 cells. The data set is described as follows: Cell cycle analysis of SCC-90 cells, SU093/radiation combination. It counts as cell-based. Particulars: SCC-90, SU093 50 nM and/or 10 Gy, 24 h. From the text:
The potential for GBP1 inhibition and radiosensitzation in head and neck cancer cells was also investigated.

The test system of another data set is GBP1 and PIM1. Briefly: Immunoblotting of GBP1 and PIM1 expression in OVCAR8 cells. It is filed as cell-based.
Data set [1] relates to Luciferase-tagged OVCAR8 cells. Briefly: Viability of luciferase-tagged OVCAR8 cells in combination with radiation or paclitaxel. It counts as cell-based. As to the method: FIG. 5, panels A-E: illustrates the sensitizing effect of SU093 on the viability of luciferase-tagged OVCAR8 cells in combination with radiation and chemotherapy treatment. FIG. 5, panel A graphs cells that were pre-treated with 0, 0.5 and 1 nM SU093 for 24 h followed by 0, 5 & 10 Gy radiation treatment and incubated for 96 h. FIG. 5, panel B illustrates cell cycle analysis of SU093 and radiation combination treatment in OVCAR8. FIG. 5, panel C illustrates the effect of SU093 on OVCAR8 cells in hypoxic condition (0.5% O2) FIG. 5, panel D graphs hypoxic cells that were pre-treated with SU093 for 24 h followed by 5 and 10 Gy radiation.
It has been previously established that GBP1 expression has a definitive role in the resistance towards radiation therapy and taxane-based chemotherapy. The GBP1 inhibitor SU093 was tested in combination with radiation and paclitaxel (a well known taxane-based chemotherapeutic drug) for its potential in overcoming radiation therapy and taxane resistance. […] A cell cycle analysis experiment for radiation was performed with SU093 and combination treatment (FIG. 5, panel B). […] One of the mechanisms through which a drug can sensitize the effect of radiation is its ability to block G2/M phase of the cell cycle (Leonard, C. E.; Chan, D. C.; Chou, T. C.; Kumar, R.; Bunn, P. A., Paclitaxel enhances in vitro radiosensitivity of squamous carcinoma cell lines of the head and neck. Cancer Research 1996, 56 (22), 5198-5204). G2/M is the most radiosensitive phase in the cell cycle and arresting the cell population in this phase would likely sensitize them to the next cycle of radiation and enhance cell death (Pawlik, T. M.; Keyomarsi, K., Role of cell cycle in mediating sensitivity to radiotherapy. International Journal of Radiation Oncology Biology Physics 2004, 59 (4), 928-942; Nambiar, D. K.; Rajamani, P.; Deep, G.; Jain, A. K.; Agarwal, R.; Singh, R. P., Silibinin Preferentially Radiosensitizes Prostate Cancer by Inhibiting DNA Repair Signaling. Molecular Cancer Therapeutics 2015, 14 (12), 2722-2734). […] Bearing in mind that solid tumors create a hypoxic microenvironment, these findings provided a very compelling case for the clinical application of the subject GBP1 inhibitors as a treatment for re-sensitizing radiation therapy in refractory cancers.
The cytotoxic effect of SU093 and paclitaxel combination treatment was also studied (FIG. 5, panel E).

A short description of data set [2]: Maximum tolerable dose study, 14 days IP. It is filed as in vivo, mice. Here is the method: FIG. 7, panel A illustrates in vivo PK studies, C57BL/6 mice. Drug concentration in plasma was quantified at different time points using LCMS after a single IP injection of SU093. FIG. 7, panel B illustrates the drug concentration in harvested ovaries and liver of C57BL/6 mice after 14 days of administration with SU093 (100 mg/kg) by daily IP injection.
To determine the maximum tolerable dose of an exemplary GBP1 inhibitor, SU093 was administered to C57BL6 female mice (n=10) intraperitoneally at 100 mg/kg for 14 days. […] At the end of the 14th day, mice were sacrificed and organs were harvested.

For the next data set, the system named is B2M. Briefly: B2M expression in SCC-90 cells. It is filed as cell-based. Particulars: SCC-90 cells treated with SU093. From the text: Down-regulation of Major Histocompatibility Complex class I molecules (MHC-I) expression is a widespread phenomenon used by tumor cells to escape antitumor T-cell-mediated immune responses. Reduction in B2-microglobulin (B2M, a molecule associated with MHC-I) helps cancer cells to hide them from immune system (Hicklin, D. J.; Marincola, F. M.; Ferrone, S., HLA class I antigen downregulation in human cancers: T-cell immunotherapy revives an old story. Molecular Medicine Today 1999, S (4), 178-186.) In experiments conducted herein, reduced expression B2M in GBP1-OV cells was observed (FIG. 1, panel F).

Structures are written as SMILES. Entries after “also recorded” stand apart in the source; their conditions may differ.

As to `COc1ccc2c(c1)N(CCO)C1=C(C(=O)OC1)C2c1ccccc1` (centres unmarked) [SU093], the “% GBP1 expression OVCAR-8 @5 nM” value in the data set on GBP1 (5 nM) came to 60.3%. For the same compound, in the data set with GBP1 (10 nM), the “% GBP1 expression OVCAR-8 @10 nM” value is 51.0%. Moreover, the “cytotoxicity for normal cell line” value in the data set with HEK293 is reported as “no cytotoxicity”. In the data set with OVCAR8 cells, the active mitochondrial mass result was “significantly diminished active mitochondrial mass”. Besides, in the data set on SCC-90 cells, the “cell cycle, SU093/radiation combination” value is given as “G2/M phase arrest followed by cell death; also recorded: increase in G2/M phase arrest, followed by apoptosis”. Moreover, the “GBP1 and PIM1 expression” value in the data set on GBP1 and PIM1 was “inhibits GBP1 and PIM1 expressions in a dose-dependent manner”. In addition, the “cell viability, pretreatment with SU093 then radiation” value in data set [1] (5 and 10 Gy radiation) is listed as “significant synergistic effect”. Also, the “cytotoxicity in hypoxic conditions” value in data set [1] (OVCAR8, hypoxic (0.5% O2)) was “intrinsic cytotoxic effects”. Also, in data set [1] (SU093 0.5 nM 24 h then paclitaxel 1, 5, 10 nM), the “cytotoxic effect of SU093 and paclitaxel combination” value was “synergistic cytotoxic effect; also recorded: enhanced cytotoxic effect as compared to paclitaxel alone”. In addition, the “cell death, co-treatment with radiotherapy in hypoxia” value in data set [1] (hypoxic OVCAR8, SU093 plus 5 and 10 Gy) is “significantly potentiated cell death”. Moreover, in data set [2] (100 mg/kg for 14 days), the CHEM-22 panel analysis entry is recorded as “only acute liver toxicity”. In addition, the “weight loss or sign of toxicity” value in data set [2] (C57BL6 female mice, 100 mg/kg IP, 14 days) is on record as “no significant weight loss or sign of toxicity”. Further, in data set [2] (female, C57BL/6, mouse, ovaries, intraperitoneal, 100 mg/kg daily IP, after 14 days, LCMS, read-out: concentration in the target organ (ovaries)), the concentration at 14 days was determined as 3730 ng/mL. For the same compound, in the data set with B2M, the B2M expression entry is given as “induced expression of B2M”.
